Data published in article PMC12040169 (PLOS Biology, 2025).

Assay: in vitro
Details: human, hela cells, % viability

| Structure (SMILES) | viability at 28.5 h, 10 µM | viability at 28.5 h, 10 µM (bulk resorufin, single well) |
| --- | --- | --- |
| CCc1nc(CCn2ccc3nc(OC)c(C#N)cc3c2=O)no1 [CBK307668] | 94.1% |  |
| O=C(O)c1cn(C2CC2)c2cc(N3CCN(C(=O)C4CCCO4)CC3)c(F)cc2c1=O (stereo not drawn) [CBK297139] | 97.7% |  |
| CC(C)(CN)CN(Cc1cccc(Cl)c1)C(=O)Nc1ccc2c(c1)OCO2 [CBK002482C] | 107% |  |
| O=C(Cn1cc(C(=O)c2ccco2)c2ccccc21)NCCc1c[nH]c2ccccc12 [CBK267509] |  | 97.9% |
| CSc1nnc2c(n1)[nH]c1ccccc12 [CBK025967] | 96.6% |  |
| O=C1NCCCNC(=O)C2(C/C=C/CCOc3ccccc31)CCN(C(=O)CN1CCCC1)CC2 [CBK292052] | 101% |  |
| Cc1ccc(S(=O)(=O)Oc2ccc(C(c3c(C)n[nH]c3O)c3c(C)n[nH]c3O)cc2)cc1 [CBK265305] | 104% |  |
| CCCn1cc(NC(=O)NC(CC)(CO)c2ccccc2)ccc1=O (stereo not drawn) [CBK305060] | 104% |  |
| CSCC(=O)N1C[C@@H]2C[C@H](C1)c1c(-c3ccc(NC(C)=O)cc3)ccc(=O)n1C2 [CBK289200] | 89.7% |  |
| CCOCCNC(=O)c1coc(COc2ccc3sc(C)nc3c2)n1 [CBK306805] | 109% |  |
| CCCC/C=C/c1cnc(N)c(Nc2ccc(OC)cc2)n1 [CBK063890] | 93.9% |  |
| CC1CCc2nn(CCNC(=O)Cc3ccccc3F)c(=O)cc2C1 (stereo not drawn) [CBK284482] | 97.2% |  |
| C(=N\c1ccc(Cc2ccc(/N=C/c3cccnc3)cc2)cc1)/c1cccnc1 [CBK260884] | 95% |  |
| COc1cc(/N=C(\N)Nc2nc(=O)cc(CSc3ccc(C)cc3)[nH]2)cc(OC)c1 [CBK265532] | 83.4% |  |
| NC(=O)c1csc(-c2ccc(F)cc2F)n1 [CBK067749] | 68.6% |  |
| CN1CCC(N2CCN(C(=O)NCC(c3ccccc3)c3ccccc3)CC2)CC1 [CBK156096] | 92.5% |  |
| CCc1nc2ccc(C(=O)NC3=NC(=O)CS3)cn2c1N(CC)C(C)=O [CBK145839] | 100% |  |
| Cc1cc2c(cc1C)N(C(=O)CSc1nc3ccccc3[nH]1)C(C)(C)CC2C (stereo not drawn) [CBK264144] | 98.7% |  |
| Cc1ccc(S(=O)(=O)N2CCCCC2CO)cc1 (stereo not drawn) [CBK051142] | 114% |  |
| COCc1ccc(CN2CCC3(CCc4ccccc4C(=O)N3)C2)o1 (stereo not drawn) [CBK284651] | 94.3% |  |
| COc1ccc(-n2ncc3c(N4CCN(Cc5ccccc5)CC4)ncnc32)cc1 [CBK265879] | 88.8% |  |
| COc1ccc(Br)cc1/C=N/Nc1nc(NCc2ccccc2)nc(N2CCOCC2)n1 [CBK261232] | 92.9% |  |

| Structure (SMILES) | viability at 28.5 h, 10 µM | viability at 28.5 h, 10 µM (bulk resorufin, single well) |
| --- | --- | --- |
| COc1ccccc1/C=N/C12CN3CN(CN(C3)C1)C2 [CBK261387] | 93% |  |
| OC(CN1CCC(O)(c2ccc(F)cc2)CC1)c1ccc(Cl)cc1 (stereo not drawn) [CBK283311] | 89.6% |  |
| COc1ccc(-n2c(S)nnc2-c2cccs2)cc1 [CBK266832] | 103% |  |
| CC1CCc2c(sc(NC(=O)Cn3cnc([N+](=O)[O-])n3)c2C(N)=O)C1 (stereo not drawn) [CBK263064] | 91.3% |  |
| O=C(Nc1ccc2c(c1)COC1(CCNCC1)O2)c1cc2cc(Cl)ccc2[nH]1 [CBK091529T] |  | 71.3% |
| CCN(CC)C(=O)CN1CCC(c2ccc(F)cc2)CC1 [CBK285475] | 108% |  |
| Cc1ccc(-c2csc3ncnc(SCc4csc(C)n4)c23)cc1 [CBK267244] | 91.7% |  |
| O=C(Nc1cccc(O)c1)c1ccc(Br)c(S(=O)(=O)N2CCCCC2)c1 [CBK261736] | 91.9% |  |
| O=C1CC2(CCCC2)C(=O)N1CCNc1nccc(C(F)(F)F)n1 [CBK028777] | 97.4% |  |
| c1coc(C2N3CCC4(CC3)c3[nH]c5ccccc5c3CCN24)c1 (stereo not drawn) [CBK282862] | 112% |  |
| O=C(CSc1nc2ccccc2n1Cc1ccccc1)N/N=C/c1ccco1 [CBK263174] | 89.6% |  |
| COc1cc(/C=C2\SC(=N)NC2=O)ccc1OCC(=O)O [CBK262675] | 88.4% |  |
| COc1ccc(Nc2cc(Cl)ccc2C(=O)NC(C)(C)CN2CCOCC2)cn1 [CBK107436] | 97.1% |  |
| COc1ccc(NS(=O)(=O)c2cccs2)c(OC)c1 [CBK043915] | 93% |  |
| C[N+]1(CC(=O)c2ccccc2)C2CCC1CC(OC(=O)C(O)c1ccccc1)C2 (stereo not drawn) [CBK022712C] | 120% |  |
| CC(NS(=O)(=O)c1cc(Cl)ccc1Cl)C(=O)Nc1ccccc1 (stereo not drawn) [CBK267871] | 110% |  |
| CCOc1cc(S(=O)(=O)NCCCn2ccnc2)ccc1Cl [CBK269874] | 89% |  |
| Cc1ccc(CS(=O)(=O)N(C)C2CCN(C)C(C)C2)c(F)c1 (stereo not drawn) [CBK305484] | 90.4% |  |
| O=C(O)c1ccc(OCc2n[nH]c(=S)n2-c2ccc(Cl)cc2)cc1 [CBK014317] | 102% |  |
| Cc1cc(C)c(S(=O)(=O)N2CCC(C(=O)NNC(=S)NC3CCCC3)CC2)c(C)c1 [CBK266844] | 98.4% |  |
| O=C(O)c1cccc(-c2ccc(Nc3cccc(NC(=O)c4ccncc4)c3)nc2)c1 [CBK037776] | 101% |  |
| O=C1CCCN1CCCNC(=O)N1CCN(Cc2ccccc2)CC1 [CBK155658] | 104% |  |

| Structure (SMILES) | viability at 28.5 h, 10 µM | viability at 28.5 h, 10 µM (bulk resorufin, single well) |
| --- | --- | --- |
| CCCOc1ccc(-c2nn(-c3ccccc3)cc2/C=C2\SC(=S)N(CC(=O)O)C2=O)cc1 [CBK264525] | 111% |  |
| CS(=O)(=O)N1CCCc2cc(-c3csc(N4CCCC4)n3)ccc21 [CBK306093] | 114% |  |
| CC(C)CNC(=O)N1CCN(Cc2ccccc2)CC1 [CBK155644] | 110% |  |
| Cc1nn(C)c(Cl)c1S(=O)(=O)NC1(c2ccc(F)cc2)CC1 [CBK282800] | 97.5% |  |
| Cc1cc(OC(C)C(=O)Nc2ccccc2C(=O)N2CCCCC2)ccc1Cl (stereo not drawn) [CBK269696] | 104% |  |
| CN(CCCCCC(=O)/C=N/O)Cc1ccccc1 [CBK288499] | 91.7% |  |
| C=Cn1cc(CN2C3CCC2CC(O)(c2ccc(F)cc2)C3)c(C)n1 (stereo not drawn) [CBK282742] | 80.6% |  |
| O=C(c1coc(COc2cccc(F)c2)n1)N1CC(n2cccn2)C1 [CBK306842] | 77.2% |  |
| CCN(CC1CCN(C)C1)C(=O)c1cc(COc2cccc(F)c2)[nH]n1 (stereo not drawn) [CBK307239] | 88.8% |  |
| Cc1ccc2nc(C)cc(NC(=O)c3ccncc3)c2c1 [CBK287801] | 81.5% |  |
| CC(NC(=O)CCN1CCN(C)CC1)c1cc2cc(Cl)ccc2o1 (stereo not drawn) [CBK281601] | 102% |  |
| CCOC(=O)c1c(C)n(-c2ccc(C)cc2)c2ccc(Oc3ncccc3C#N)cc12 [CBK261310] | 109% |  |
| CC1CCCN(Cc2c(C3CCNCC3)[nH]c3ncccc23)C1 (stereo not drawn) [CBK285078] | 78.5% |  |
| CS(=O)(=O)Nc1cccc(C2=NN(S(=O)(=O)c3ccc(Cl)cc3)C(c3ccccc3F)C2)c1 (stereo not drawn) [CBK268762] | 114% |  |
| Cc1c(C(=O)O)sc(S(=O)(=O)N2CCN(C(=O)CC(C)c3ccccc3)CC2)c1C(=O)O (stereo not drawn) [CBK297143] | 97.4% |  |
| O=C(O)C1CCN(C(=O)[C@@H]2Cc3ccccc3CN2)CC1 [CBK286638] | 91% |  |
| Cc1ccc(/C=C(\NC(=O)c2ccccc2)C(=O)N2CCCC2C(=O)O)cc1 (stereo not drawn) [CBK265649] | 87.6% |  |
| CC1CCN(S(=O)(=O)c2cccc(C(=O)NNC(=O)c3ccco3)c2)CC1 [CBK266796] | 92.2% |  |
| O=C(c1ccoc1)N1CCC2(CCCN(CCCn3c(=O)[nH]c4ccccc43)C2)C1 (stereo not drawn) [CBK132818] | 90.1% |  |
| O=C(CSc1nnnn1-c1ccccc1)Nc1nsc(-c2ccccc2)n1 [CBK267192] | 108% |  |
| O=C(Cc1ccc(F)cc1F)Nc1ccc2cc[nH]c2c1 [CBK160044] | 102% |  |
| O=C(NC(c1cccnc1)c1ccc2c(c1)OCO2)C1CCN(CCc2cccs2)CC1 (stereo not drawn) [CBK148503] | 105% |  |

| Structure (SMILES) | viability at 28.5 h, 10 µM | viability at 28.5 h, 10 µM (bulk resorufin, single well) |
| --- | --- | --- |
| Cc1cc2oc(=O)c3c(c2cc1C)CCN(C)C3 [CBK017803] | 97% |  |
| O=C(O)c1cc(S(=O)(=O)Nc2cccc(-c3cnco3)c2)c(F)cc1Cl [CBK067126] | 90.5% |  |
| COc1c(O)ccc(/C=N\NC(=O)C2COc3cc4ccccc4cc3O2)c1[N+](=O)[O-] (stereo not drawn) [CBK262836] | 86.9% |  |
| O=C(CCn1c(=O)oc2ccccc21)Nc1ccncc1 [CBK287466] | 92.5% |  |
| Cc1nn(C)cc1S(=O)(=O)N1CCCC(c2cccc(Cc3ccc(Cl)cc3)n2)C1 (stereo not drawn) [CBK286506] | 88.4% |  |
| COc1ccc(-c2cc(C(=O)Nc3nc4c(OC)cccc4s3)cnc2-c2ccccc2)cn1 [CBK036681] | 105% |  |
| Oc1c2c(nn1Cc1ccccc1)CCCC2 [CBK089898] | 87.4% |  |
| CCCc1cc(C(=O)N2CCCC(COc3cccc(F)c3)C2)[nH]n1 (stereo not drawn) [CBK306776] | 85.3% |  |
| C=CCN1C(=O)C2(CC(=O)N(CC)C2=O)c2cc(F)ccc21 (stereo not drawn) [CBK075318] | 100% |  |
| COc1cc(CNc2cc(-c3ccc4c(c3)OCO4)ncn2)cc(OC)c1OC [CBK037822] | 98.9% |  |
| Oc1ccc(CN2CCN(c3ccc(F)cc3)CC2)c2cccnc12 [CBK267985] | 117% |  |
| CCCOc1ccc(-c2nnn(CC(=O)OCC)n2)cc1 [CBK068817] | 98.8% |  |
| COCC(=O)NC1CCN(CC2(c3ccc(F)cc3)CCCC2)CC1 [CBK285387] | 95.5% |  |
| Cc1ccc(C(CCO)Nc2ncnc3c2c(C)nn3C)cc1 (stereo not drawn) [CBK307387] | 82.1% |  |
| CC/C(=C/c1sc2ccc3ccccc3c2[n+]1CCCS(=O)(=O)[O-])SC [CBK260901] | 104% |  |
| COc1ccc(C=Cc2cc(C(=O)O)c3ccccc3n2)cc1OC(F)F [CBK296953] | 85.9% |  |
| CCN(CC)CCN(C(=O)c1cnn(C)c1C)C1CCS(=O)(=O)C1 (stereo not drawn) [CBK305321] | 89.1% |  |
| CC(C)(C)c1ccc(C(=O)Nc2cnn(CCCC(=O)O)c2)cc1 [CBK269929] | 94.2% |  |
| O=c1[nH]nc2c(S(=O)(=O)N3CCCCC3)cccn12 [CBK288450] | 74.9% |  |
| COc1ccccc1NC(=O)C1=C(C)Nc2nnnn2C1c1ccc(OC)c([N+](=O)[O-])c1 (stereo not drawn) [CBK293954] | 83.8% |  |
| COc1cccc(NC(=O)CCS(=O)(=O)c2ccccc2)c1 [CBK270150] | 91.9% |  |
